The values below come from ChEMBL document CHEMBL4390702, “Discovery of novel phenoxybenzamide analogues as Raf/HDAC dual inhibitors” (Bioorg Med Chem Lett, 2019).

Calls of active or inactive are those of the source. No cut-off for these calls is given here.

Assay [1] concerns K562. The assay can be described thus: Antiproliferative activity against human K562 cells measured after 48 hrs by MTT assay. Format: functional, cell-based. Conditions: K562, 48 h.
The target in assay [2] is T1, Protein deacetylase HDAC6 (Homo sapiens) (UniProt Q9UBN7).
T1 sequence (whole entry): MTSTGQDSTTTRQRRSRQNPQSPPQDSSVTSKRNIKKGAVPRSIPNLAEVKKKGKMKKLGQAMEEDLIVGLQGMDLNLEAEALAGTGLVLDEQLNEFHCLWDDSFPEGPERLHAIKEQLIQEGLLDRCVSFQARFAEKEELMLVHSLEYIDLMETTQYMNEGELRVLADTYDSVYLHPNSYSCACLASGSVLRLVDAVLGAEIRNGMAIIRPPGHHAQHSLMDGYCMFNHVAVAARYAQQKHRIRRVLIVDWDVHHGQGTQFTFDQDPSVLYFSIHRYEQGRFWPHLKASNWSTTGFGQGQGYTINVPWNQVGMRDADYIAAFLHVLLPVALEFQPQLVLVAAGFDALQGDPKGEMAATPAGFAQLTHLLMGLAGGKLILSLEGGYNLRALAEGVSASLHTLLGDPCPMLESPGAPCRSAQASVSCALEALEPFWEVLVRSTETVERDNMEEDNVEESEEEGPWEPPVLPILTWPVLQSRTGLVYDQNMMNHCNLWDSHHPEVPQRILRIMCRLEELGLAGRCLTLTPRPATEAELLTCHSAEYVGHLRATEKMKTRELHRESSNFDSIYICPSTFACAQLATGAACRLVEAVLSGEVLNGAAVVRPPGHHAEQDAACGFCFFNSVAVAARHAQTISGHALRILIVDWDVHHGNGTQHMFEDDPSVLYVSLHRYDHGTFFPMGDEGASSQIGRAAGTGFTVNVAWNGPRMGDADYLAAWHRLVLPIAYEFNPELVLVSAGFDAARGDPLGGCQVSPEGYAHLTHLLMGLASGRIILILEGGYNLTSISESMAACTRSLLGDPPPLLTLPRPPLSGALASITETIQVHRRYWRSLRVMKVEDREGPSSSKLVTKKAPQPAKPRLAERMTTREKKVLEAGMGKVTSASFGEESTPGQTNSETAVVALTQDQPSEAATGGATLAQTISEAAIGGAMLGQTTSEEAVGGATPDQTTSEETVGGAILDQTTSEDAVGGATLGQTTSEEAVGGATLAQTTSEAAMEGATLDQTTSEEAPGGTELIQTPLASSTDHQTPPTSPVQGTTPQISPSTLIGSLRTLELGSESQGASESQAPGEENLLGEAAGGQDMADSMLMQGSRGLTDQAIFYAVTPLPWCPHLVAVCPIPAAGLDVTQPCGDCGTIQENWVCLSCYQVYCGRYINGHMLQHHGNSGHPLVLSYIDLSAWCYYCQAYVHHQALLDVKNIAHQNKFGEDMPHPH
Kind of assay: Inhibition of recombinant human HDAC6 at 50 uM using Fluor-de-Lys as substrate measured after 10 mins by fluorescence assay.

The target of assay [3] is T2, Histone deacetylase 8 (Homo sapiens) (UniProt Q9BY41).
T2 sequence (whole entry): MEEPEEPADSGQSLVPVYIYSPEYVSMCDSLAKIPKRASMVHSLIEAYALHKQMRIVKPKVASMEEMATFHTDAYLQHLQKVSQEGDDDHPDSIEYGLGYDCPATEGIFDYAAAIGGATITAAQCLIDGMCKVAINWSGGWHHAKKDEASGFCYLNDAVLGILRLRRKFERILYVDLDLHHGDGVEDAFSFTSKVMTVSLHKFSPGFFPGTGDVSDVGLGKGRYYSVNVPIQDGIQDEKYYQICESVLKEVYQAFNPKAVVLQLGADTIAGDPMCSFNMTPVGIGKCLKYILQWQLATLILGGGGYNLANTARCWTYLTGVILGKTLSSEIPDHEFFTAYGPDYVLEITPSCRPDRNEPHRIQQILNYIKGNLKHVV
Kind of assay: Inhibition of recombinant full-length human C-terminal His-tagged HDAC8 expressed in baculovirus infected Sf9 insect cells at 50 uM using Fluor-de-Lys as substrate measured after 10 mins by fluorescence assay.

The test system of assay [4] is HepG2. The assay can be described thus: Antiproliferative activity against human HepG2 cells measured after 48 hrs by MTT assay. To be noted: HepG2, 48 h. Format: functional, cell-based. (Tetrazolium dyes change colour on reduction, which living cells bring about.)
In assay [5] the test system is MV4-11. Kind of assay: Antiproliferative activity against human MV4-11 cells measured after 48 hrs by MTT assay. Format: functional, cell-based. To be noted: MV4-11, 48 h.
For assay [6], the system named is MDA-MB-468. The assay can be described thus: Antiproliferative activity against human MDA-MB-468 cells measured after 48 hrs by MTT assay. Format: functional, cell-based. Conditions: MDA-MB-468, 48 h.
Assay [7] deals with Serine/threonine-protein kinase B-raf (Homo sapiens, UniProt P15056, V600E). The assay can be described thus: Inhibition of recombinant human N-terminal GST-tagged BRAF V600E mutant catalytic domain (416 to 766 residues) expressed in baculovirus expression system using human His6-tagged MEK1 (K97R) as substrate preincubated for 20 mins followed by [33P-gamma]ATP addition and measured after 2 hrs by filter-binding assay.

Assay [8] deals with T3, Histone deacetylase 1 (Homo sapiens, UniProt Q13547). The assay can be described thus: Inhibition of recombinant full-length human C-terminal FLAG/His-tagged HDAC1 expressed in baculovirus infected Sf9 insect cells using Fluor-de-Lys as substrate measured after 10 mins by fluorescence assay.
Assay [9] concerns the target T3, Histone deacetylase 1. Kind of assay: Inhibition of HDAC1 (unknown origin).
Assay [10] deals with T4, Serine/threonine-protein kinase A-Raf (Homo sapiens, UniProt P10398).
T4 sequence (P10398 whole entry): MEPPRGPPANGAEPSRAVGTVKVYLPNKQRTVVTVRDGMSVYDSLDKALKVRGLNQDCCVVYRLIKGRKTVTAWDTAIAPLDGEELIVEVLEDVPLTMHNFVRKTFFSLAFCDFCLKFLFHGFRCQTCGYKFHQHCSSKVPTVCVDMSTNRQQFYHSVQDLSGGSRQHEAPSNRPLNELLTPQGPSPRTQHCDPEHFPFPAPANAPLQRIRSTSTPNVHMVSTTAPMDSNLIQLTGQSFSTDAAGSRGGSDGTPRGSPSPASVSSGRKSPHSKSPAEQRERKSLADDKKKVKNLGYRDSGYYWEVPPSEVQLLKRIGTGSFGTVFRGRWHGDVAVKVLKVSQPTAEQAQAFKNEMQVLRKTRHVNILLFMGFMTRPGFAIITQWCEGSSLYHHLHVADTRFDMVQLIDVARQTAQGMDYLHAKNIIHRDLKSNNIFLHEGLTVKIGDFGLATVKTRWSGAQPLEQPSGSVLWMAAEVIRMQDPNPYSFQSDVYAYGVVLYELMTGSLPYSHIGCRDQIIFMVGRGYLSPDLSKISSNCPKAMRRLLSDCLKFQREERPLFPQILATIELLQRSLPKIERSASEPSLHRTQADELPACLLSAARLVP
Kind of assay: Inhibition of human ARAF using human His6-tagged MEK1 (K97R) as substrate preincubated for 20 mins followed by [33P-gamma]ATP addition and measured after 2 hrs by filter-binding assay.

Assay [11] addresses RAF proto-oncogene serine/threonine-protein kinase (Homo sapiens, UniProt P04049). Kind of assay: Inhibition of human CRAF using human His6-tagged MEK1 (K97R) as substrate preincubated for 20 mins followed by [33P-gamma]ATP addition and measured after 2 hrs by filter-binding assay.
Assay [12] addresses T3, Histone deacetylase 1. The assay can be described thus: Inhibition of recombinant full-length human C-terminal FLAG/His-tagged HDAC1 expressed in baculovirus infected Sf9 insect cells at 50 uM using Fluor-de-Lys as substrate measured after 10 mins by fluorescence assay.

T3 sequence (Q13547 whole entry): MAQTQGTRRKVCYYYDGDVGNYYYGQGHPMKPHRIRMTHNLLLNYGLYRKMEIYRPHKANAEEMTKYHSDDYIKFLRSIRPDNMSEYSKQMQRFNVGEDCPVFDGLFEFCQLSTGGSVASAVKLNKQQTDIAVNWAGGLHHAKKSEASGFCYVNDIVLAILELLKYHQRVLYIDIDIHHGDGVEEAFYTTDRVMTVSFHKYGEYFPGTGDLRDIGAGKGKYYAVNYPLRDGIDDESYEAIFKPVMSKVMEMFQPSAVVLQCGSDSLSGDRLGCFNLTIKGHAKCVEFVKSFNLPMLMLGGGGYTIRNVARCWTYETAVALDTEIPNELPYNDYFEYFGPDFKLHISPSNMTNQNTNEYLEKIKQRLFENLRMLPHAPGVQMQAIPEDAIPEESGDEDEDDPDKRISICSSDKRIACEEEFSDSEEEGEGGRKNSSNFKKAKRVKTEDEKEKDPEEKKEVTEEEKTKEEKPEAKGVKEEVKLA
Sequence of RAF proto-oncogene serine/threonine-protein kinase (P04049 whole entry): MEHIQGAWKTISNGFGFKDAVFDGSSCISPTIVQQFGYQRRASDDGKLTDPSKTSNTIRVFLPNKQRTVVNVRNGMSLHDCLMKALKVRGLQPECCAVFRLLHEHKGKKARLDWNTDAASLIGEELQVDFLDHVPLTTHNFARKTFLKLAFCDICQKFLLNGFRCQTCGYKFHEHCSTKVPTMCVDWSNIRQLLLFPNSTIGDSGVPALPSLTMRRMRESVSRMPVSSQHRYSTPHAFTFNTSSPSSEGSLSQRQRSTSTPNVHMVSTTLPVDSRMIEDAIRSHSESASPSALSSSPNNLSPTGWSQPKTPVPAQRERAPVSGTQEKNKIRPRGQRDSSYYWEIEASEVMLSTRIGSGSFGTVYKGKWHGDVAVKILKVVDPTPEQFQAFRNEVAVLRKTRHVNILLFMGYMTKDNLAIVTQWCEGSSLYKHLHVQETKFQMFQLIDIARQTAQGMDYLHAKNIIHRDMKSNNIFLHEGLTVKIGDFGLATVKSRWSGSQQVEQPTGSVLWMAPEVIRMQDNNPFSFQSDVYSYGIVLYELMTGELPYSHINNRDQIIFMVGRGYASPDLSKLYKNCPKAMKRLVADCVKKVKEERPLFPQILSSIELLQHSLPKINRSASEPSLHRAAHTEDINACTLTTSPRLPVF

For orientation: IC50 means the concentration at which inhibition is half-maximal. In the case of `Nc1cc(F)ccc1NC(=O)c1ccc(CNC(=O)/C=C/c2cccnc2)cc1` [TUCIDINOSTAT], the half-inhibitory concentration (IC50) in assay [1] stood at 0.87 µM; in [4], 4.89 µM; in assay [5], 3.73 µM; in assay [6], 2.65 µM. Moreover, the inhibition result in assay [2] and in assay [3] was “inactive” throughout.
For `NC(=O)c1cc(Oc2ccc(NC(=O)c3ccc(Cl)c(C(F)(F)F)c3)cc2)ccc1N`, the values for the IC50 in assay [7] and in [8] were 0.688 µM and 2.79 µM, respectively.
As for `CNC(=O)c1cc(Oc2ccc(NC(=O)c3ccc4ccccc4c3)cc2)ccc1N`, the IC50 in assay [1] is 10.3 µM; in [4] it was 7.28 µM; in [7], 0.237 µM; in [5] it was 8.21 µM; in assay [6], 3.91 µM; in [8], 8.21 µM.
As for `CNC(=O)c1cc(Oc2ccc(NC(=O)c3ccc(Cl)cc3)cc2)ccc1N`, the IC50 in assay [1] is 7.12 µM; in assay [4], 5.13 µM; in assay [7] it was 0.165 µM; in assay [5] it was 9.23 µM; in [6], 4.24 µM; in [8] it was 7.11 µM.
For `CCNC(=O)c1cc(Oc2ccc(NC(=O)c3ccc(Cl)c(C(F)(F)F)c3)cc2)ccc1N`, the half-inhibitory concentration (IC50) amounted to 0.354 µM in assay [7] and 1.62 µM in [8].
For `CNC(=O)c1cc(Oc2ccc(NC(=O)c3ccc(N)cc3)cc2)ccc1N`, in that order: 0.942 µM and 2.27 µM.
For `CNC(=O)c1cc(Oc2ccc(NC(=O)c3ccc(F)cc3)cc2)ccc1N`, the 50% inhibitory concentration (IC50) worked out at 6.43 µM in [1]; 7.56 µM in assay [4]; 0.303 µM in [7]; 5.32 µM in assay [5]; 5.76 µM in [6]; 7.65 µM in assay [8].
Consider `CNC(=O)c1cc(Oc2ccc(NC(=O)c3cccnc3)cc2)ccc1N`, for which the values for the IC50 in assay [7], in assay [9] and in assay [8] were 1.78 µM, 5.23 µM and 5.23 µM, respectively.
For the compound `CNC(=O)c1cc(Oc2ccc(NC(=O)c3ccc(Cl)c(C(F)(F)F)c3)cc2)ccc1N`, the half-inhibitory concentration (IC50) amounted to 0.183 µM in assay [10]; 2.73 µM in assay [1]; 0.092 µM in assay [11]; 1.33 µM in [4]; 0.073 µM in [7]; 1.12 µM in assay [5]. The IC50 in assay [6] was found to be 0.57 µM; in assay [8], 1.17 µM. The inhibition entry in assay [2] and in [3] was “inactive” throughout.
Turning to `CNC(=O)c1cc(Oc2ccc(NC(=O)c3cccc(N)c3)cc2)ccc1N`, the IC50 in [7] came to 3.26 µM; in assay [8], 1.03 µM.
Take `CNC(=O)c1cc(Oc2ccc(NC(=O)c3ccc(OC)cc3)cc2)ccc1N`: the IC50 turned out to be 0.211 µM in assay [10]; 5.22 µM in assay [1]; 0.652 µM in assay [11]; 6.65 µM in [4]; 0.187 µM in assay [7]; 1.87 µM in assay [5]. For the same compound, the results for the half-maximal inhibitory concentration (IC50) in assay [6] and in [8] were 0.95 µM and 2.46 µM, respectively. Besides, the inhibition entry in [2] and in assay [3] was “inactive” in each case.
On to `CN(C)C(=O)c1cc(Oc2ccc(NC(=O)c3ccc(Cl)c(C(F)(F)F)c3)cc2)ccc1N`, for which the IC50 in assay [7] turned out to be 4.17 µM. Further, the inhibition entry in assay [12] is “inactive”.
Regarding `CNC(=O)c1cc(Oc2ccc(NC(=O)c3cccc(O)c3)cc2)ccc1N`, the IC50 in [7] turned out to be 4.06 µM; in assay [8] it was 1.95 µM.
`CNC(=O)c1cc(Oc2ccc(NC(=O)Nc3ccc(Cl)c(C(F)(F)F)c3)cc2)ccn1` [SORAFENIB]: the IC50 in assay [1] was 17.2 µM; in assay [4], 3.04 µM; in assay [5], 0.51 µM; in [6] it was 12.2 µM.
`CNC(=O)c1cc(Oc2ccc(NC(=O)c3ccccc3)cc2)ccc1N`: the 50% inhibitory concentration (IC50) in assay [7] was found to be 0.342 µM; in [8], 6.19 µM.
